Measurements: PubChem BioAssay AID248 (DTP/NCI, 2004)
Toxic doses and inconclusive results are not listed.

System: L1210 leukemia ip in BDF1 mice, survival T/C
Test: NCI In Vivo Anticancer Drug Screen. Data for tumor model L1210 Leukemia (intraperitoneal) in B6D2F1 (BDF1) mice
Settings: endpoint: mean survival time, higher = longer survival
Summary of the method: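 Mice bearing the transplanted tumor received compound or vehicle. Survival of the treated group was divided by that of the vehicle-treated control group to give the ratio.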

[1] = dose: 100.0 mg/kg/injection, schedule: Q01DX001 (ip), vehicle: Klucel (hydroxypropylcellulose) (HPC)
[2] = dose: 100.0 mg/kg/injection, schedule: Q04DX003 (ip), vehicle: Klucel (hydroxypropylcellulose) (HPC)
[3] = dose: 200.0 mg/kg/injection, schedule: Q01DX001 (ip), vehicle: Klucel (hydroxypropylcellulose) (HPC)
[4] = dose: 200.0 mg/kg/injection, schedule: Q04DX003 (ip), vehicle: Klucel (hydroxypropylcellulose) (HPC)
[5] = dose: 400.0 mg/kg/injection, schedule: Q04DX003 (ip), vehicle: Klucel (hydroxypropylcellulose) (HPC)
[6] = dose: 100.0 mg/kg/injection, schedule: Q04DX002 (ip), vehicle: saline with Tween-80
[7] = dose: 200.0 mg/kg/injection, schedule: Q04DX002 (ip), vehicle: saline with Tween-80
[8] = dose: 400.0 mg/kg/injection, schedule: Q04DX002 (ip), vehicle: saline with Tween-80
[9] = dose: 100.0 mg/kg/injection, schedule: Q01DX009 (ip), vehicle: Klucel (hydroxypropylcellulose) (HPC)
[10] = dose: 200.0 mg/kg/injection, schedule: Q01DX009 (ip), vehicle: Klucel (hydroxypropylcellulose) (HPC)
[11] = dose: 400.0 mg/kg/injection, schedule: Q01DX009 (ip), vehicle: Klucel (hydroxypropylcellulose) (HPC)
[12] = dose: 100.0 mg/kg/injection, schedule: Q04DX002 (ip), vehicle: Klucel (hydroxypropylcellulose) (HPC)
[13] = dose: 200.0 mg/kg/injection, schedule: Q04DX002 (ip), vehicle: Klucel (hydroxypropylcellulose) (HPC)
[14] = dose: 400.0 mg/kg/injection, schedule: Q01DX001 (ip), vehicle: Klucel (hydroxypropylcellulose) (HPC)
[15] = dose: 400.0 mg/kg/injection, schedule: Q04DX002 (ip), vehicle: Klucel (hydroxypropylcellulose) (HPC)

With `O=[N+]([O-])c1ccc2nc[nH]c2c1` the T/C (dose: 25.0 mg/kg/injection, schedule: Q01DX009 (ip), vehicle: saline with Tween-80) was 89 % of control and the T/C (dose: 50.0 mg/kg/injection, schedule: Q01DX009 (ip), vehicle: saline with Tween-80) was 96 % of control.

For `CN(C)c1ccc(/C=[N+](\[O-])c2cccc(Cl)c2)cc1`, the T/C [1] was 95 % of control, the T/C [2] was 102 % of control and the T/C [3] was 97 % of control. For the same compound, the T/C [4] was 100 % of control and the T/C [5] was 107 % of control.

For `O=S1(=O)N=C(Sc2ccccc2)c2ccccc21`, the T/C [6] was 102 % of control, the T/C [7] was 98 % of control and the T/C [8] was 98 % of control.

With `O=C(COc1ccc([N+](=O)[O-])cc1Cl)N1CCOCC1` the T/C [9] was 103 % of control, the T/C [2] was 98 % of control and the T/C [10] was 97 % of control. For the same compound, the T/C [4] was 103 % of control, the T/C [11] was 101 % of control and the T/C [5] was 95 % of control.

In the case of `CCO/N=C(/C)C(C)SC#N` (centres undefined), the T/C (dose: 10.0 mg/kg/injection, schedule: Q01DX001 (ip), vehicle: saline) is reported as 97 % of control and the T/C (dose: 20.0 mg/kg/injection, schedule: Q01DX001 (ip), vehicle: saline) is reported as 105 % of control.

For `COC(=O)C(Nc1ccc([N+](=O)[O-])cc1[N+](=O)[O-])C(C)OS(=O)(=O)c1ccc(C)cc1` (centres undefined), the T/C (dose: 100.0 mg/kg/injection, schedule: Q01DX001 (ip), vehicle: saline) was 95 % of control, the T/C (dose: 200.0 mg/kg/injection, schedule: Q01DX001 (ip), vehicle: saline) was 93 % of control and the T/C (dose: 400.0 mg/kg/injection, schedule: Q01DX001 (ip), vehicle: saline) was 92 % of control.

`OC1CC23C=CC2(C1)C1(CC3)OCCO1` (centres undefined) was tested, and the T/C (dose: 50.0 mg/kg/injection, schedule: Q04DX002 (ip), vehicle: saline with Tween-80) was 92 % of control, the T/C [6] was 92 % of control and the T/C [7] was 95 % of control. For the same compound, the T/C [8] was 98 % of control.

For `N#Cc1ccc(Cl)cc1`, the T/C [12] was 100 % of control and the T/C [13] was 102 % of control.

For `COC(=O)C1(C(=O)OC)C2CCCCC21` (centres undefined), the T/C [1] was 90 % of control, the T/C [2] was 96 % of control and the T/C [3] was 103 % of control. For the same compound, the T/C [4] was 104 % of control, the T/C [14] was 98 % of control and the T/C [5] was 98 % of control.

For `O=C1CCCSc2ccccc21`, the T/C [9] was 106 % of control, the T/C [2] was 108 % of control and the T/C [10] was 104 % of control. The T/C [4] was 106 % of control, the T/C [11] was 106 % of control and the T/C [5] was 101 % of control.

With `CC(C)(N)CC(=O)Oc1ccccc1` the T/C (dose: 37.5 mg/kg/injection, schedule: Q04DX003 (ip), vehicle: saline) was 97 % of control, the T/C (dose: 75.0 mg/kg/injection, schedule: Q01DX001 (ip), vehicle: saline) was 104 % of control and the T/C (dose: 150.0 mg/kg/injection, schedule: Q01DX001 (ip), vehicle: saline) was 101 % of control. For the same compound, the T/C (dose: 150.0 mg/kg/injection, schedule: Q04DX003 (ip), vehicle: saline) was 92 % of control.

In the case of `O=C1/C(=C/c2ccccc2[N+](=O)[O-])Cc2ccccc21`, the T/C (dose: 50.0 mg/kg/injection, schedule: Q01DX009 (ip), vehicle: Klucel (hydroxypropylcellulose) (HPC)) is reported as 107 % of control, the T/C [9] is reported as 94 % of control and the T/C [10] is reported as 93 % of control.

For `Nc1ccccc1SC(CC(=O)c1ccccc1)c1cccc([N+](=O)[O-])c1` (centres undefined), the T/C (dose: 100.0 mg/kg/injection, schedule: Q01DX005 (ip), vehicle: Klucel (hydroxypropylcellulose) (HPC)) was 112 % of control, the T/C [12] was 95 % of control and the T/C (dose: 200.0 mg/kg/injection, schedule: Q01DX005 (ip), vehicle: Klucel (hydroxypropylcellulose) (HPC)) was 105 % of control. For the same compound, the T/C [10] was 87 % of control, the T/C [13] was 110 % of control and the T/C (dose: 400.0 mg/kg/injection, schedule: Q01DX005 (ip), vehicle: Klucel (hydroxypropylcellulose) (HPC)) was 91 % of control. For the same compound, the T/C [15] was 89 % of control.

With `CC1CC(NC(=O)N(CCCl)N=O)CC(C)(C)C1` (centres undefined) the T/C (dose: 8.0 mg/kg/injection, schedule: Q01DX001 (ip), vehicle: other) was 96 % of control, the T/C (dose: 16.0 mg/kg/injection, schedule: Q01DX001 (ip), vehicle: other) was 94 % of control and the T/C (dose: 31.0 mg/kg/injection, schedule: Q01DX001 (ip), vehicle: other) was 105 % of control. For the same compound, the T/C (dose: 62.0 mg/kg/injection, schedule: Q01DX001 (ip), vehicle: other) was 120 % of control, the T/C (dose: 250.0 mg/kg/injection, schedule: Q01DX001 (ip), vehicle: other) was 157 % of control and the T/C (dose: 375.0 mg/kg/injection, schedule: Q01DX001 (ip), vehicle: other) was 292 % of control. For the same compound, the T/C (dose: 500.0 mg/kg/injection, schedule: Q01DX001 (ip), vehicle: other) was 308 % of control and the T/C (dose: 750.0 mg/kg/injection, schedule: Q01DX001 (ip), vehicle: other) was 333 % of control.

In the case of `Cc1ccc(S(=O)(=O)OCC(=O)O)cc1`, the T/C (dose: 100.0 mg/kg/injection, schedule: Q04DX003 (ip), vehicle: saline with Tween-80) is reported as 95 % of control, the T/C (dose: 200.0 mg/kg/injection, schedule: Q04DX003 (ip), vehicle: saline with Tween-80) is reported as 95 % of control and the T/C (dose: 400.0 mg/kg/injection, schedule: Q04DX003 (ip), vehicle: saline with Tween-80) is reported as 100 % of control.

`O=C(Nc1ccc2c(c1)Cc1cc(Br)ccc1-2)C(F)(F)F` was tested, and the T/C (dose: 100.0 mg/kg/injection, schedule: Q01DX009 (ip), vehicle: saline with Tween-80) was 97 % of control, the T/C (dose: 200.0 mg/kg/injection, schedule: Q01DX009 (ip), vehicle: saline with Tween-80) was 92 % of control and the T/C (dose: 400.0 mg/kg/injection, schedule: Q01DX009 (ip), vehicle: saline with Tween-80) was 94 % of control.

With `CCOC(CCc1c(-c2ccccc2)nc(N)[nH]c1=O)OCC` the T/C (dose: 100.0 mg/kg/injection, schedule: Q01DX009 (ip), vehicle: other) was 110 % of control, the T/C (dose: 200.0 mg/kg/injection, schedule: Q01DX009 (ip), vehicle: other) was 102 % of control and the T/C (dose: 400.0 mg/kg/injection, schedule: Q01DX009 (ip), vehicle: other) was 93 % of control.

With `CC(=O)CC(=O)NCCNC(=O)CC(C)=O` the T/C (dose: 100.0 mg/kg/injection, schedule: Q04DX003 (ip), vehicle: saline) was 101 % of control, the T/C (dose: 200.0 mg/kg/injection, schedule: Q04DX003 (ip), vehicle: saline) was 100 % of control and the T/C (dose: 400.0 mg/kg/injection, schedule: Q04DX003 (ip), vehicle: saline) was 100 % of control.

`CN1C(=O)CN=C(c2ccc[nH]2)c2cc(Cl)ccc21` (tested in a mixture with another compound) was tested, and the T/C [9] was 96 % of control, the T/C [2] was 103 % of control and the T/C [10] was 91 % of control. For the same compound, the T/C [4] was 102 % of control and the T/C [5] was 105 % of control.

In the case of `O=C(CC(CC(=O)c1ccccc1)c1ccccc1)c1ccccc1`, the T/C (dose: 50.0 mg/kg/injection, schedule: Q01DX001 (ip), vehicle: carboxymethylcellulose (CMC)) is reported as 91 % of control, the T/C (dose: 100.0 mg/kg/injection, schedule: Q01DX001 (ip), vehicle: carboxymethylcellulose (CMC)) is reported as 94 % of control and the T/C (dose: 200.0 mg/kg/injection, schedule: Q01DX001 (ip), vehicle: carboxymethylcellulose (CMC)) is reported as 94 % of control. For the same compound, the T/C (dose: 400.0 mg/kg/injection, schedule: Q01DX001 (ip), vehicle: carboxymethylcellulose (CMC)) was 94 % of control.

With `O=NN(CCCC(=O)O)C(=O)NCCCC(=O)O` the T/C (dose: 25.0 mg/kg/injection, schedule: Q01DX Z (ip), vehicle: carboxymethylcellulose (CMC)) was 103 % of control, the T/C (dose: 50.0 mg/kg/injection, schedule: Q01DX Z (ip), vehicle: carboxymethylcellulose (CMC)) was 90 % of control and the T/C (dose: 100.0 mg/kg/injection, schedule: Q01DX Z (ip), vehicle: carboxymethylcellulose (CMC)) was 100 % of control. The T/C (dose: 200.0 mg/kg/injection, schedule: Q01DX Z (ip), vehicle: carboxymethylcellulose (CMC)) was 94 % of control and the T/C (dose: 300.0 mg/kg/injection, schedule: Q01DX Z (ip), vehicle: carboxymethylcellulose (CMC)) was 95 % of control.

With `Cc1cc(OC(=O)Nc2ccc(F)c([N+](=O)[O-])c2)cc(C)c1Cl` the T/C [9] was 101 % of control, the T/C [10] was 93 % of control and the T/C [11] was 95 % of control.

In the case of `CC1(c2ccc3ccccc3c2)OCC2(CCC2)CO1`, the T/C [12] is reported as 97 % of control and the T/C [15] is reported as 107 % of control.

`O=C(Nc1ccc(F)cc1)OCCOc1ccc(Cl)cc1Cl` was tested, and the T/C [9] was 105 % of control, the T/C [10] was 110 % of control and the T/C [11] was 109 % of control.

`O=C(Nc1ccc(Cl)c(Cl)c1)c1ccc(Cl)cc1` was tested, and the T/C [6] was 103 % of control, the T/C [7] was 95 % of control and the T/C [8] was 95 % of control.

In the case of `COc1ccc2c(n1)Sc1c(Cl)nc(Cl)nc1N2`, the T/C [1] is reported as 95 % of control, the T/C [3] is reported as 93 % of control and the T/C [14] is reported as 98 % of control.

In the case of `CCCCC1=CC(=O)C2CCCCC2C1=O` (centres undefined), the T/C [1] is reported as 102 % of control, the T/C [3] is reported as 105 % of control and the T/C [14] is reported as 92 % of control.
